Data reported in patent publication US12264163B2, “Compounds and methods for treating fibrotic pathologies” (Mayo Foundation for Medical Education and Research, priority 2019, dated 2025).
Where a name gives a salt, the structure may show the parent alone.

Assays:
[1] = test system: YAP/TAZ; experiment: YAP/TAZ nuclear localization in IPF patient-derived lung fibroblasts treated with dopaminergic agonists; format: cell-based, human; conditions: 10 μM, 2 hours
Protocol: IPF patient-derived lung fibroblasts cells treated 2 hours prior to fixation with diverse dopaminergic agonists (10 μM). N=4 different patient samples. % nuclear localization of YAP/TAZ was determined using automated imaging software. Scale bar represents 100 μm.
(§1) Media was then exchanged for the indicated conditions for each experiment. […] Cells or tissue sections were incubated overnight with mouse monoclonal antibody against αSMA (Sigma-Aldrich F3777), and/or a rabbit monoclonal antibody against YAP/TAZ (Cell Signaling D24E4) diluted 1:200 in PBS with 1% BSA. Cells were then washed and exposed to flourescence-conjugated secondary antibodies (Invitrogen) diluted 1:1000 and DAPI (Thermo Fisher Scientific). Images were taken with a Cytation5 (BioTek) microscope. For scoring αSMA positive cells (FIG. 12), an observer blinded to the treatment conditions counted αSMA-positive cells using a visual threshold for bright fibrous staining; a minimum of 200 cells was counted for each condition. YAP/TAZ localization was quantified (FIGS. 6-10, 24-26, and 29-30) using Gen5 (Biotek) software. Images were taken at 4× magnification of both DAPI and YAP/TAZ staining. […] Quantification of double positive (YAP/TAZ and αSMA) cells from lung tissue sections (FIG. 17-21) was performed similarly; however separate thresholds were established for both YAP/TAZ and αSMA. A minimum of 4000 cells was quantified for each mouse.

[2] = test system: αSMA; experiment: αSMA intensity (fibroblast activation) in IPF patient-derived lung fibroblasts + TGFβ, dopaminergic agonist library; format: cell-based, human; conditions: 1 μM + TGFβ; for αSMA intensity (% of DMSO control): 72 hours
Protocol: as §1

[3] = test system: CTGF, COL1A1, ACTA2, FN1; experiment: Profibrotic / matrix remodeling gene expression by qPCR in fibroblasts; format: cell-based, human; conditions: human dermal fibroblasts, 24 hours +/− 2 ng/mL TGFβ
Protocol: Genes which encode Connective tissue growth factor (CTGF), Collagen I (COL1A1), αSMA (ACTA2), and Fibronectin (FN1) are reduced by 24 hour treatment with DHX (10 μM), +/−SCH 39166 (3 μM). N=3 (****p<0.0001, ***p<0.001, *p<0.05 vs. 0.1% DMSO vehicle control)
IPF patient-derived fibroblasts cultured in media containing 0.1% FBS were stimulated for 24 hours with 2 ng/mL TGFβ and 10 μM DHX prior to RNA isolation. Genes which encode for ECM crosslinking: transglutaminase 2 (TGM2), lysyl oxidase and lysyl oxidase-like enzymes (LOX and LOXL1-4), ECM degradation: uPA (PLAU), tPa (PLAT), cathepsin K (CTSK), and matrix metalloprotease-14 (MMP14) and ECM protease inhibitors: metalloprotease inhibitor 3 (TIMP3), and plasminogen activator inhibitor 1 (SERPINE1) were measured. N=3. (****p<0.0001, ***p<0.001, **p<0.01, *p<0.05 vs. 0.1% DMSO vehicle control non-TGFβ treated), (++++p<0.0001, ++p<0.01, +p<0.05 vs. 0.10% DMSO vehicle control TGFβ treated).
For all other in vitro experiments, cells were treated as indicated prior to RNA isolation using RNeasy Plus Mini Kit (Qiagen) according to manufacturer's instructions. Isolated RNA (250 ng) was then used to synthesize cDNA using SuperScript VILO (Invitrogen). Quantitative PCR was performed using FastStart Essential DNA Green Master (Roche) and analyzed using a LightCycler 96 (Roche). Data are expressed as a fold change by ΔΔCt relative to GAPDH. For in vivo experiments, tissue was immediately frozen, and stored at −80° C. RNA isolation, cDNA synthesis, and qPCR analysis were performed as above.

[4] = test system: D1 receptor; conditions: cited from earlier work
[5] = test system: YAP/TAZ; experiment: YAP/TAZ nuclear localization in IMR-90 and other fibroblasts / mesenchymal cells (immunofluorescence); format: cell-based, human
Protocol: Selective agonists of dopamine receptor D1 with varying efficacy inhibit YAP/TAZ nuclear localization; this effect can be overcome by treatment with a DRD1 receptor antagonist (SCH 39166, 3 μM), (Dihydrexidine, 10 μM). IMR-90 cells treated 2 hours prior to fixation. N=4 (****p<0.0001 vs. 0.10% DMSO vehicle control). Scale bar represents 100 μm.
In each case DHX treatment (10 μM) can reverse this effect on YAP/TAZ. IMR-90 cells plated densely onto plastic cell culture plates for 24 hours in media containing 0.1% FBS, treated for 2 hours prior to fixation. N=4 (****p<0.0001 vs. 0.1% DMSO vehicle control), (++++p<0.0001 vs. the respective stimulated agonist ET-1, LPA, or 5-HT). Scale bar represents 100 μm.
Mesenchymal cells derived from lung (IMR-90 and IPF-FBs) hepatic stellate cells (HSC), human adult cardiac fibroblasts, (HACF) and human dermal fibroblasts (HDF) were plated densely (Confluent) or sparsely (Control and all remaining conditions) onto plastic cell culture plates for 24 hours in media containing 0.10% FBS, treated for 2 hours with Rho kinase inhibitor Y27632, adenylate cyclase activator forskolin and DHX. N=4, Cells that were positive for nuclear YAP/TAZ were quantified by automated image analysis.
Immunofluorescence Microscopy: Cells were plated into 96 well plates (Corning 3603) in their specific growth media and allowed to attach (8 hours). Media was then exchanged for the indicated conditions for each experiment. Cells were fixed in 3.7% formalin (Sigma-Aldrich), permeabilized in 0.25% Triton X-100 (Sigma-Aldrich) and then blocked with 1% BSA for 1 h. Cells or tissue sections were incubated overnight with mouse monoclonal antibody against αSMA (Sigma-Aldrich F3777), and/or a rabbit monoclonal antibody against YAP/TAZ (Cell Signaling D24E4) diluted 1:200 in PBS with 1% BSA. Cells were then washed and exposed to flourescence-conjugated secondary antibodies (Invitrogen) diluted 1:1000 and DAPI (Thermo Fisher Scientific). Images were taken with a Cytation5 (BioTek) microscope. For scoring αSMA positive cells (FIG. 12), an observer blinded to the treatment conditions counted αSMA-positive cells using a visual threshold for bright fibrous staining; a minimum of 200 cells was counted for each condition. YAP/TAZ localization was quantified (FIGS. 6-10, 24-26, and 29-30) using Gen5 (Biotek) software. Images were taken at 4× magnification of both DAPI and YAP/TAZ staining. […] Quantification of double positive (YAP/TAZ and αSMA) cells from lung tissue sections (FIG. 17-21) was performed similarly; however separate thresholds were established for both YAP/TAZ and αSMA. A minimum of 4000 cells was quantified for each mouse.

Compound | Nuclear localization (% of total cells) ([1]; IPF-1 patient fibroblasts) | Nuclear localization (% of total cells) ([1]; IPF-2 patient fibroblasts) | Nuclear localization (% of total cells) ([1]; IPF-3 patient fibroblasts) | Nuclear localization (% of total cells) ([1]; IPF-4 patient fibroblasts) | αSMA intensity (% of DMSO control) ([2]; IPF-1 patient fibroblasts) | αSMA intensity (% of DMSO control) ([2]; IPF-2 patient fibroblasts) | αSMA intensity (% of DMSO control) ([2]; IPF-3 patient fibroblasts) | αSMA intensity (% of DMSO control) ([2]; IPF-4 patient fibroblasts) | profibrotic gene expression in human dermal fibroblasts [3] | efficacy at elevating cAMP (D1 receptor) [4] | potency of inhibition of YAP/TAZ nuclear localization, normal vs IPF lung fibroblasts ([5]; normal lung fibroblasts vs those from a patient with IPF) | activity at 1 µM ([2]; Homo sapiens, SMA, 72 h, IPF-3 patient fibroblasts, read-out: αSMA intensity (% of DMSO control)) | YAP/TAZ nuclear localization ([5]; fibroblasts / mesenchymal cells on plastic, 2 hours)
Cl.NC[C@@H]1O[C@H](c2ccccc2)Cc2c1ccc(O)c2O [A 68930•HCl, A 68930] | 33.13 % of total cells | 30.59 % of total cells | 26.82 % of total cells | 10.26 % of total cells | 12.4 % of DMSO control | 8.111 % of DMSO control | 3.245 % of DMSO control | 7.35 % of DMSO control | blocks profibrotic gene expression | lacks full efficacy to elevate cAMP |  |  | 
Cc1cccc(C(=O)NCN2CCN(c3ccccc3C#N)CC2)c1.O=C(O)/C=C\C(=O)O [PD 168077 maleate, PD 168077] | 67.08 % of total cells | 42.44 % of total cells | 63.68 % of total cells | 68.4 % of total cells | 75.27 % of DMSO control | 56.15 % of DMSO control | 75.77 % of DMSO control | 66.5 % of DMSO control |  |  |  |  | 
CCCCC[C@H](O)/C=C/[C@H]1[C@H](O)CC(=O)[C@@H]1C/C=C\CCCC(=O)O [PGE2, prostaglandin E2] |  |  |  |  |  |  |  |  |  |  | reduced potency |  | 
Br.C=CCN1CCc2c(cc(O)c(O)c2Br)[C@@H](c2ccccc2)C1 [R(+)-6-BROMO-APB•HBr, R(+)-6-BROMO-APB] | 28.37 % of total cells | 38 % of total cells | 36 % of total cells | 25.65 % of total cells | 11.25 % of DMSO control | 2.507 % of DMSO control | 0.8506 % of DMSO control | 22.82 % of DMSO control |  |  |  |  | 
Br.CCCN1CCc2cc(O)cc3c2[C@H]1Cc1ccc(O)c(O)c1-3 [R(−)-2,10,11-Trihydroxy-N-propyl-noraporphine] | 32.87 % of total cells | 35.25 % of total cells | 37.7 % of total cells | 25.36 % of total cells | 4.895 % of DMSO control | 8.436 % of DMSO control | 2.988 % of DMSO control | 25.61 % of DMSO control |  |  |  |  | 
COc1ccc2c(c1O)-c1cc(O)cc3c1[C@@H](C2)N(C)CC3.Cl [R(−)-2,11-dihydroxy-10-methoxyapomorphine] | 85.18 % of total cells | 74.67 % of total cells | 80.73 % of total cells | 80.45 % of total cells | 91.84 % of DMSO control | 92.8 % of DMSO control | 81.85 % of DMSO control | 85.61 % of DMSO control |  |  |  |  | 
CCCN(CCC)CCc1cccc2c1CC(=O)N2 [Ropinirole HCl, Ropinirole] | 69.6036 % of total cells | 58.68 % of total cells | 64.66 % of total cells | 65.7 % of total cells |  |  |  |  |  |  |  | 79% | 
Oc1cc2c(c(Cl)c1O)CCNCC2c1ccccc1 (stereo not shown) [SKF-81297] |  |  |  |  |  |  |  |  |  |  |  |  | reduced nuclear localization of YAP/TAZ
Oc1ccc2c(c1O)Cc1cccc3c1[C@H]2CNC3 [dinapsoline] |  |  |  |  |  |  |  |  |  | full magnitude cAMP response |  |  | 
Oc1ccc2c(c1O)Oc1cccc3c1C2CNC3 (stereo not shown) [dinoxyline] |  |  |  |  |  |  |  |  |  | full magnitude cAMP response |  |  | 
R(−)-2,10,11-Trihydroxyaporphine [R(−)-2,10,11-Trihydroxyaporphine•HBr] | 13.71 % of total cells | 22.15 % of total cells | 24.15 % of total cells | 17.75 % of total cells | 2.888 % of DMSO control | 1.698 % of DMSO control | 7.646 % of DMSO control | 15.9942 % of DMSO control |  |  |  |  | 
R(−)-Propylnorapomorphine [R(−)-Propylnorapomorphine•HCl] | 28.35 % of total cells | 26.71 % of total cells | 42.74 % of total cells | 29.03 % of total cells | 5.081 % of DMSO control | 1.879 % of DMSO control | 5.561 % of DMSO control | 19.96 % of DMSO control |  |  |  |  | 
